In patent US20250195412A1, “PHARMACEUTICAL FORMULATIONS OF R-KETAMINE” (priority 2022, published 2025):
In brackets after ≈: the same amount, converted by molar mass. Several values for one entry are separate records, joined by “and”; a condition that tells them apart may be missing. Equal values may be shown once. Entries after “also recorded” stand apart in the source; their conditions may differ.

Tests used:
[1] = Cyclodextrin inclusion: API content of filtered solution by HPLC; type: physicochemical; settings: nominal 100 mg/ml (86.96 mg/ml free base)
Method: (§1) The effect of hydroxypropyl β-cyclodextrin (HPB) on the solubility of R-ketamine at different pH values was investigated. Varied factors were pH of the solution and the concentration of HPB. Response factors were tonicity, which was determined by freezing point depression, and API content, which was measured by HPLC, of a filtered (0.22 μm) solution.
(§2) After dissolving the active ingredient (100 mg/ml, 86.96 mg/ml free base), a defined amount of HPB was added. After complete solution of the two components, the target pH was adjusted with sodium hydroxide solution (1 M). The resulting solution was filtered through a syringe filter (0.22 μm) and analyzed by HPLC and freezing point depression. A separate protocol was prepared for each individual experiment.

[2] = Cosolvent screening: tonicity by freezing point depression; type: physicochemical
Method: (§3) For cosolvent screening, a set of possible candidates was identified. Specifically, 5% sulfobutyl-ether-β-cyclodextrin (SBE7), polyethylene glycol 400 (PEG 400), glycerol, propylene glycol, and 5% polysorbate 80 were to be screened at pH 5 and 6. Unless otherwise specified, cosolvents were screened at 20% and 50% (m/V). As a control, the solubility of R-ketamine in water was studied at pH 5 and 6.
(§4) The test solution consisting of water for injection. The respective cosolvent was prepared and the active substance was dissolved to a nominal concentration of 100 mg/ml (equaling 86.96 mg/ml free base). The pH was then adjusted to pH 5 with 1N NaOH and a sample was obtained under filtration (0.22 μm). Thereafter, the pH was further increased to pH 6 and another sample was taken (also filtered). Both samples were analyzed for assay and tonicity by HPLC and freezing point depression.
(§5) • Batch size: 90 g/pH set at end of compounding (1N NaOH/1N HCl)

[3] = Citrate buffer: content of filtered sample by HPLC, visual precipitation; type: physicochemical
Method: (§6) One finding from the previous Examples was that there is a range between pH 5 and 6 in which 60 mg/ml API can be dissolved. Strong precipitation of the free base only occurs above a pH of 5.9 according to the observation. Based on this observation, it was decided to investigate two compendial buffer systems (citrate and phosphate buffer) for their ability to hold 60 mg/ml of R-ketamine in solution and stabilize the formulation against pH shifts. Another change was that the pH adjustment was done with 0.15 N NaOH instead of 1 N NaOH in the following experiments. This change was underdone because there were concerns that the very alkaline microenvironment around the drops of sodium hydroxide solution would lead to the formation of flakes that were difficult to dissolve.
(§7) The ingredients for a 20 mM buffer and the appropriate amount of R-ketamine HCl (60 mg/ml, equaling 52.2 mg/ml free base) were weighed together and diluted in water for injection. Subsequently, the pH was adjusted, e.g. to 5.2. After filling up to the target volume, the mixture was stirred for a defined time and a sample was obtained under filtration (0.22 μm). This sample was analyzed for content by HPLC and for tonicity by freezing point depression.

[4] = Cosolvent screening: assay of filtered sample by HPLC; type: physicochemical
Method: as §3, §4, §5

[5] = Initial tests with maleic acid buffering: dissolution behaviour and pH; type: physicochemical
Method: Due to its ability to act as a buffer in the acidic to neutral range, a 0.02 M aqueous maleic acid solution was proposed as the base formulation. The aim was to investigate the dissolving capacity for R-ketamine in the concentration range of 60, 80 and 100 mg/ml at pH 5.5 and 5.7 (after the feasibility test with a pH of 5.8 had to be considered as failed) and the stability of the formulations in a study for four weeks.
In an initial feasibility test, the dissolution behaviour of R-ketamine was investigated in the presence of maleic acid. Pure water was used as a comparison. In an aqueous solution of 60 mg/ml R-ketamine without buffering, a pH of 4.65 was obtained. If the same amount of R-ketamine was dissolved in a 0.02 M maleic acid buffer adjusted to pH 5.75, the pH decreased to a value of 5.38.

[6] = pH dependence of solubility / precipitation of the free base in water; type: physicochemical
Method: From pH 5.5, the free base consequently precipitates, if this is not prevented by the addition of suitable excipients.
as §6
The solubility of R-ketamine is strongly pH dependent. In the acidic pH range, the active ingredient is readily soluble, while precipitation occurs at pH values greater than 5.7-5.9. A careful choice of formulation parameters allows the requirements of the application route to be reconciled with the dissolution behavior of the active ingredient. The way in which the pH is adjusted also has a major influence. By using low-concentration alkalis, the formation of highly alkaline microenvironments around the dropping point could be avoided. This prevents the formation of active ingredient flocs that are difficult to dissolve again.

[7] = Hygroscopicity, DVS experiments; type: physicochemical; settings: between 50% RH to 90% RH in DVS experiments
[8] = Citrate buffer: tonicity by freezing point depression; type: physicochemical
Method: as §6, §7

[9] = pH 5.5
[10] = Log P (general properties)
[11] = Solubility profile in solvents
[12] = Phosphate buffer: tonicity by freezing point depression; type: physicochemical
Method: as §7
(§8) Based on the previous results from the citrate buffer series experiment, the experiments with the phosphate buffer could be limited to pH 5.8. The nominal concentrations 60 and 70 mg/ml were investigated.
(§9) The solution was prepared and tested as described for the citrate buffer.

[13] = Orientative stability examination of phosphate-buffered formulation, room temperature storage; type: physicochemical; settings: 60 mg/mL in phosphate buffer pH 5.8, room temperature, two weeks
[14] = Phosphate buffer: content of filtered sample by HPLC, visual precipitation; type: physicochemical
Method: as §7, §8, §9

[15] = Cyclodextrin inclusion: tonicity by freezing point depression; type: physicochemical
Method: as §1, §2

[16] = Cyclodextrin (HPB) 20 %, pH 4.5
[17] = Cyclodextrin (HPB) 20 %, pH 7.5
[18] = 60 mg/ml in 20 mM citrate buffer, pH 5.4
[19] = 60 mg/ml in 20 mM citrate buffer, pH 5.6
[20] = 60 mg/ml in 20 mM citrate buffer, pH 5.8
[21] = 70 mg/ml (60.9 mg/ml free base) in citrate buffer, pH 5.8
[22] = phosphate buffer pH 5.8, nominal 60 mg/ml (52.2 mg/ml free base)
[23] = phosphate buffer pH 5.8, nominal 70 mg/ml (60.9 mg/ml free base)

CN[C@@]1(c2ccccc2Cl)CCCCC1=O [R-ketamine, (2R)-2-(2-chlorophenyl)-2-(methylamino)cyclohexan-1-one]
Assay ([1]; Cyclodextrin (HPB) 0 %, pH 4.5): 88.9 mg/mL | Assay ([1]; Cyclodextrin (HPB) 0 %, pH 7.5): 0.9 mg/mL | Assay ([1]; Cyclodextrin (HPB) 10 %, pH 6): 26.8 mg/mL and 29.6 mg/mL | Assay [1, 16]: 93.9 mg/mL | Assay [1, 17]: 11.1 mg/mL | Tonicity ([2]; Glycerol 20%, pH 6.0): 1445 mOsmol | Tonicity ([2]; PEG 20%, pH 6.0): 695 mOsmol | Tonicity ([2]; Tween 5%, pH 5.0): 686 mOsmol | Tonicity ([2]; Tween 5%, pH 6.0): 602 mOsmol | Tonicity ([2]; Water for injection, pH 5.0): 651 mOsmol | Tonicity ([2]; Water for injection, pH 6.0): 568 mOsmol | Assay ([3]; 60 mg/ml (52.2 mg/ml free base) in 20 mM citrate buffer, pH 5.2): 46.2 mg/mL | Assay [3, 18]: 46.1 mg/mL | Assay [3, 19]: 46.4 mg/mL | Assay [3, 20]: 47.2 mg/mL | visual precipitation ([3]; 60 mg/ml in citrate buffer, pH 5.2-5.8): no precipitation could be detected visually | content found ([3]; 60 mg/ml in citrate buffer, range of pH 5.2-5.8): about 46.5 mg/ml | Assay [3, 21]: 46.2 mg/mL | precipitation after pH adjustment [3, 21]: precipitation was observed | pKa (pKa (general properties)): 7.5 | Assay ([4]; Glycerol 20%, pH 6.0): 19.1 mg/mL | Assay ([4]; Glycerol 50%, pH 6.0): 20.2 mg/mL | Assay ([4]; PEG 20%, pH 6.0): 19.9 mg/mL | Assay ([4]; PEG 50%, pH 6.0): 21.6 mg/mL | Assay ([4]; Propylene glycol 20%, pH 6.0): 24.5 mg/mL | Assay ([4]; Propylene glycol 50%, pH 6.0): 46.5 mg/mL | Assay ([4]; Tween 5%, pH 5.0): 89.2 mg/mL | Assay ([4]; Tween 5%, pH 6.0): 18.8 mg/mL | Assay ([4]; Water for injection, pH 5.0, nominal 100 mg/ml (86.96 mg/ml free base)): 88.6 mg/mL | Assay ([4]; Water for injection, pH 6.0): 19.7 mg/mL | pH after dissolving ([5]; 60 mg/ml in 0.02 M maleic acid buffer adjusted to pH 5.75): 5.38 | pH obtained ([5]; aqueous solution of 60 mg/ml R-ketamine without buffering): 4.65 | precipitation on raising the pH to 5.8 ([5]; maleic acid buffer, pH raised to 5.8 with 0.15 M NaOH): without precipitation | pH from which the free base precipitates ([6]; in water, without suitable excipients, Henderson-Hasselbalch, FIG. 1): ≥ 5.5 | pH above which precipitation of the free base occurs ([6]; observed in the experiments): > 5.9 and 5.7-5.9 | API that can be dissolved ([6]; range between pH 5 and 6): 60 mg/mL | Hygroscopicity [7]: Not hygroscopic, no moisture uptake | Tonicity ([8]; 60 mg/ml in 20 mM citrate buffer, pH 5.2): 534 mOsmol/kg | Tonicity [8, 18]: 540 mOsmol/kg | Tonicity [8, 19]: 546 mOsmol/kg | Tonicity [8, 20]: 561 mOsmol/kg | Tonicity ([8]; 70 mg/ml in citrate buffer, pH 5.8): 556 mOsmol/kg | decrease of pH over the study, average [9]: 0.2 pH units | four-week stability assay [9]: satisfactory stability | logP [10]: 2.18 | Solubility Classification (EP) ([11]; 1-propanol): Sparingly soluble | solubility ([11]; 1-propanol, organic solvent or mixture): 13 to 15 mg/mL (≈ 54.7 to 63.1 mM) | Solubility Classification (EP) ([11]; 2-propanol): Slightly soluble | solubility ([11]; 2-propanol, organic solvent or mixture): ~4 mg/mL (≈ 16.8 mM) | Solubility Classification (EP) ([11]; Acetone, acetonitrile, anisole, ethyl acetate, heptane, methyl ethyl ketone, methyl iso-butyl ketone, tetrahydrofuran, methyl tert-butyl ether): Very slightly soluble | Solubility Classification (EP) ([11]; DMSO, Ethanol): Sparingly soluble | solubility ([11]; DMSO, ethanol, organic solvent or mixture): 20 to 30 mg/mL (≈ 84.1 to 126 mM) | Solubility Classification (EP) ([11]; Methanol): Soluble | Solubility Classification (EP) ([11]; Water): Freely soluble | solubility ([11]; methanol, organic solvent or mixture): 50 to 100 mg/mL (≈ 210 to 421 mM) | solubility ([11]; organic solvent or mixture): < 1 mg/mL | solubility ([11]; water): > 140 mg/mL | solubility ([11]; water, pH 4, water): > 140 mg/mL | Tonicity [12, 22]: 476 mOsmol/kg | Tonicity [12, 23]: 545 mOsmol/kg | shelf life / precipitation on storage [13]: fine crystalline precipitate was observed; also recorded: precipitation | Assay [14, 22]: 51.2 mg/ml free base | Assay [14, 23]: 59.7 mg/ml free base | visible precipitation after pH adjustment and filtration ([14]; phosphate buffer pH 5.8, nominal 60 and 70 mg/ml): no visible precipitation | Tonicity ([15]; Cyclodextrin (HPB) 0 %, pH 4.5): 644 mOsmol | Tonicity ([15]; Cyclodextrin (HPB) 0 %, pH 7.5): 522 mOsmol | Tonicity ([15]; Cyclodextrin (HPB) 10 %, pH 6): 680 mOsmol and 683 mOsmol | Tonicity [15, 16]: 638 mOsmol | Tonicity [15, 17]: 546 mOsmol
